Data set [1] relates to Plasmodium falciparum. Nature of the data set: NOVARTIS: Inhibition of Plasmodium falciparum 3D7 (drug-susceptible) proliferation in erythrocyte-based infection assay. Format: functional, organism-based. The settings on record: Plasmodium falciparum, 3D7.
Data set [2] relates to Plasmodium falciparum. Nature of the data set: NOVARTIS: Inhibition of Plasmodium falciparum W2 (drug-resistant) proliferation in erythrocyte-based infection assay. Format: functional, organism-based. The settings on record: Plasmodium falciparum, W2; read-out: EC50.
The nature of data set [3]: NOVARTIS: Cytotoxicity against human hepatocellular carcinoma cell line (Huh7). Format: toxicity, cell-based, Huh-7. The settings on record: Huh7 cells (hepatocellular carcinoma cell line).

The text below walks through data of ChEMBL document CHEMBL1156829 (Proc Natl Acad Sci U S A, 2008).

The EC50 is the concentration giving half of the maximal effect. A word on the CC50: it is the concentration at which the toxic effect on the cells reaches its halfway point. `CC(=O)Oc1cccc(C=c2sc3ncnn3c2=O)c1`: the values for the EC50 in the data set with Plasmodium falciparum [1] and in the data set on Plasmodium falciparum [2] were over 1250 nM and over 989 nM, respectively. In addition, in data set [3], the CC50 is over 10 µM.

For `Cc1nc(N2CCN(C)CC2)c2c(C)c(C(=O)NCCN(C)C)sc2n1`, the EC50 is over 1600 nM in the data set on Plasmodium falciparum [1] and over 1000 nM with Plasmodium falciparum [2]. Moreover, the CC50 in data set [3] was over 10 µM.

On to `CN(CC(=O)NC(C)(C)C)S(=O)(=O)c1ccccc1`, for which the half-maximal effective concentration (EC50) was over 1250 nM in the data set on Plasmodium falciparum [1] and over 1000 nM in the data set on Plasmodium falciparum [2]. The same compound displayed a CC50 in data set [3] of over 10 µM.

Consider `CCOc1ccc2nc3cc(NC(=O)c4ccc(C)cc4)ccc3c(N)c2c1`, for which the EC50 with Plasmodium falciparum [1] is over 1190 nM; with Plasmodium falciparum [2] it was 997 nM. Besides, in data set [3], the CC50 is over 10 µM.

On to `CC12CN3CC(C)(CN(C1)C3c1ccccc1)C2=O` (stereo unspecified), for which the values for the EC50 in the data set with Plasmodium falciparum [1] and in the data set with Plasmodium falciparum [2] were over 11200 nM and over 10000 nM, respectively. The same compound registered a CC50 in data set [3] of over 100 µM.

As for `O=C(COC(=O)c1c2c(nc3ccccc13)CCCCCCCCCC2)c1ccc(Cl)cc1`, the results for the EC50 in the data set with Plasmodium falciparum [1] and with Plasmodium falciparum [2] were over 11200 nM and over 10000 nM, respectively. In addition, the half-maximal cytotoxic concentration (CC50) in data set [3] is over 100 µM.

On to `COc1ccc(CN(C)C(C)C)cc1OC1CCN(C(=O)C2CCC2)CC1`, for which the results for the EC50 with Plasmodium falciparum [1] and with Plasmodium falciparum [2] were over 11200 nM and over 10000 nM, respectively. The compound further gave a CC50 in data set [3] of over 100 µM.

With `CN(CCCNc1nc2ccccc2c2nc(-c3cccnc3)nn12)Cc1ccccc1`, the values for the EC50 in the data set on Plasmodium falciparum [1] and in the data set on Plasmodium falciparum [2] were over 771 nM and over 996 nM, respectively. In data set [3], the CC50 was over 10 µM.

`COc1cc(C=NNC(=O)c2cccc3ccccc23)ccc1OCC(N)=O`: the figures for the EC50 in the data set with Plasmodium falciparum [1] and with Plasmodium falciparum [2] were over 1250 nM and over 989 nM, respectively. The CC50 in data set [3] was over 10 µM.

For `O=C(Oc1ccc(N2C(=O)c3ccc([N+](=O)[O-])cc3C2=O)cc1)c1ccco1`, the EC50 in the data set with Plasmodium falciparum [1] and with Plasmodium falciparum [2] was over 10000 nM throughout. The compound further showed a half-maximal cytotoxic concentration (CC50) in data set [3] of over 100 µM.

With `Cc1[nH]c(=O)[nH]c(=O)c1S(=O)(=O)Nc1ccc2oc(-c3ccncc3)nc2c1`, the concentration giving a half-maximal response (EC50) in the data set with Plasmodium falciparum [1] and in the data set with Plasmodium falciparum [2] was over 10000 nM in each case. In addition, the CC50 in data set [3] is over 100 µM.

Consider `Cc1c(Cl)cccc1NC(=S)N(CCCN(C)c1ccccc1)Cc1cccn1Cc1ccc(Cl)cc1`, for which the EC50 in the data set on Plasmodium falciparum [1] is over 7300 nM; in the data set with Plasmodium falciparum [2] it was over 10000 nM. In data set [3], the CC50 is over 100 µM.

For `CCCc1ccc(OCCNC(=O)CCNC(=O)Nc2cccc(Cl)c2)cc1`, the figures for the EC50 with Plasmodium falciparum [1] and in the data set with Plasmodium falciparum [2] were over 1380 nM and over 999 nM, respectively. In data set [3], this compound returned a CC50 of over 10 µM.

Turning to `O=C(NN1CCOCC1)c1ccc(Br)cc1`, the EC50 with Plasmodium falciparum [1] is over 1510 nM; in the data set on Plasmodium falciparum [2] it was over 997 nM. Moreover, in data set [3], the CC50 was over 10 µM.

On to `CC1C/C(=C/c2ccncc2)C(=O)/C(=C/c2ccncc2)C1` (stereo unspecified), for which the 50% effective concentration (EC50) is 1210 nM in the data set with Plasmodium falciparum [1] and 990 nM with Plasmodium falciparum [2]. In data set [3], the CC50 is over 10 µM.

For `O=C(CN1CCN(C(=O)c2ccco2)CC1)Nc1cc(C(F)(F)F)ccc1Cl`, the EC50 is 4040 nM with Plasmodium falciparum [1] and over 10000 nM with Plasmodium falciparum [2]. This compound also showed a 50% cytotoxic concentration (CC50) in data set [3] of over 100 µM.

As to `CCOC(=O)C1=C(C)N/C(=C\c2cc(C)n(-c3ccc(C)cc3)c2C)C1=O`, the results for the EC50 in the data set with Plasmodium falciparum [1] and in the data set with Plasmodium falciparum [2] were 1840 nM and 988 nM, respectively. The same compound showed a CC50 in data set [3] of over 10 µM.

Consider `O=C1c2cccc3cccc(c23)C(=O)N1c1ccc(-c2c3ccccc3c(-c3ccc(N4C(=O)c5cccc6cccc(c56)C4=O)cc3)c3ccccc23)cc1`, for which the EC50 with Plasmodium falciparum [1] was found to be 1050 nM; in the data set with Plasmodium falciparum [2] it was 1000 nM. In addition, the CC50 in data set [3] was over 10 µM.

For `COc1ccc2[nH]c3c(=O)n(C)cnc3c2c1`, the EC50 in the data set on Plasmodium falciparum [1] was over 1410 nM; with Plasmodium falciparum [2], 1000 nM. For the same compound, in data set [3], the CC50 is over 10 µM.

`CN1C(=O)NC(c2cccnc2)C(C(=O)c2cccs2)C1(O)C(F)(F)F` (stereo unspecified): the EC50 in the data set with Plasmodium falciparum [1] was over 11200 nM; with Plasmodium falciparum [2], over 10000 nM. The same compound displayed a CC50 in data set [3] of over 100 µM.

For the compound `COc1cccc(C2CC3(CC(C)(C)NC(=S)N3)Oc3cc(OC(C)=O)c(Cl)cc32)c1` (stereo unspecified), the EC50 was over 1300 nM in the data set with Plasmodium falciparum [1] and over 995 nM in the data set with Plasmodium falciparum [2]. The same compound registered a cytotoxic concentration (CC50) in data set [3] of over 10 µM.

Consider `CCCCCN(CC(=O)Nc1cc(C(C)(C)C)nn1-c1ccc(Cl)c(Cl)c1)C(=O)c1cccc(OC)c1`, for which the figures for the EC50 with Plasmodium falciparum [1] and in the data set with Plasmodium falciparum [2] were 597 nM and 992 nM, respectively. Moreover, the CC50 in data set [3] was over 10 µM.
